Data on one compound can be found in paper PMC7714403 (JCI Insight, 2020).

Molecules are shown by their SMILES. “And” between values parts separate entries of the source, which are not always exact repeats. Equal entries are not always repeated.

For one assay, the target named is T1, ABL1 (Homo sapiens, UniProt P00519).
T1 construct: purchased Eurofins DiscoverX
Nature of the assay: KdELECT binding assay.

For the next assay, the target named is T2, FLT3 (Homo sapiens, UniProt P36888).
T2 construct: purchased Eurofins DiscoverX
The experiment in a line: KdELECT binding assay. The settings on record: FLT3 WT.

For a further assay, the target named is T3, JAK3 (Homo sapiens, UniProt P52333).
T3 construct: purchased Eurofins DiscoverX
The experiment in a line: KdELECT binding assay.

A further assay addresses T4, MERTK (Homo sapiens, UniProt Q12866).
T4 construct: purchased Eurofins DiscoverX
Nature of the assay: KdELECT binding assay.

In another assay the target is T5, FGFR1 (Homo sapiens, UniProt P11362).
T5 construct: purchased Eurofins DiscoverX
The experiment in a line: KdELECT binding assay.

Assay [1] deals with phospho-FLT3 and phospho-STAT5 in Ba/F3-FLT3-ITD/F691L cells. Nature of the assay: Western blot, signaling inhibition. It counts as cell-based, mouse. The settings on record: increasing concentrations, 1 hour. How it is done: MOM13 cells were serum starved (RPMI plus 0.5% FBS) for 18–24 hours prior to start of drug treatment. For other cells, they were not serum starved. Drug treatments were carried out for 1 or 4 hours, at which time cells were lysed with Cell Lysis buffer (CST) or RIPA buffer (CST) supplemented with protease and phosphatase inhibitors. […] Western blots were developed with either Signal Fire ECL reagent (CST) or SuperSignal West Femto Maximum Sensitivity Substrate (Invitrogen) using Film or Odyssey FC Imaging System (LI-COR Biosciences). Western blots were repeated in 2–3 biological replicate experiments.
On the technique in general: Immunoblotting shows a protein as a band on a membrane.

The next assay relates to AMPKa1, AMPKa2. The experiment in a line: KiNativ, OCI cells live cell. It counts as cell-based, human.
In a further assay the target is CCRK (Homo sapiens, UniProt Q8IZL9). Nature of the assay: KiNativ, OCI cells live cell. It counts as cell-based. The settings on record: 2 h, labeling site Lys2, peptide […].
The next assay concerns the target T6, GCN2 domain2 (Homo sapiens, UniProt Q9P2K8).
T6 construct: GCN2 domain2
The experiment in a line: KiNativ, OCI cells live cell. It counts as cell-based. The settings on record: 2 h.

For a further assay, the target named is T7, IRAK4 (Homo sapiens, UniProt Q9NWZ3).
T7 sequence (Q9NWZ3 1-460): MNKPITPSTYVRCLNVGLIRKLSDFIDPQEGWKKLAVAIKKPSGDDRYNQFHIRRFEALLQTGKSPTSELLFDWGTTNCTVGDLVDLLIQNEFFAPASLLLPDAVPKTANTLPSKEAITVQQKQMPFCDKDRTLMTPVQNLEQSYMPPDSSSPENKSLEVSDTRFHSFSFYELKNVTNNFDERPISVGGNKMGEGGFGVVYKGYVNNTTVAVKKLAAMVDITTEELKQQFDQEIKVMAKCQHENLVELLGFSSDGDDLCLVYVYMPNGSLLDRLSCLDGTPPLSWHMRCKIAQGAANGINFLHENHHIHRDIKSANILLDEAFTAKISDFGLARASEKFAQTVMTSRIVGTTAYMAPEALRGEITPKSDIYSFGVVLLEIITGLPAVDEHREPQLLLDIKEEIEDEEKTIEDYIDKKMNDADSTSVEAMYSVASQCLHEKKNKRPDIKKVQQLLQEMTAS
The experiment in a line: KiNativ, OCI cells live cell. It counts as cell-based.

For a further assay, the target named is T8, LATS1 (Homo sapiens, UniProt O95835).
T8 sequence (O95835 1-1130): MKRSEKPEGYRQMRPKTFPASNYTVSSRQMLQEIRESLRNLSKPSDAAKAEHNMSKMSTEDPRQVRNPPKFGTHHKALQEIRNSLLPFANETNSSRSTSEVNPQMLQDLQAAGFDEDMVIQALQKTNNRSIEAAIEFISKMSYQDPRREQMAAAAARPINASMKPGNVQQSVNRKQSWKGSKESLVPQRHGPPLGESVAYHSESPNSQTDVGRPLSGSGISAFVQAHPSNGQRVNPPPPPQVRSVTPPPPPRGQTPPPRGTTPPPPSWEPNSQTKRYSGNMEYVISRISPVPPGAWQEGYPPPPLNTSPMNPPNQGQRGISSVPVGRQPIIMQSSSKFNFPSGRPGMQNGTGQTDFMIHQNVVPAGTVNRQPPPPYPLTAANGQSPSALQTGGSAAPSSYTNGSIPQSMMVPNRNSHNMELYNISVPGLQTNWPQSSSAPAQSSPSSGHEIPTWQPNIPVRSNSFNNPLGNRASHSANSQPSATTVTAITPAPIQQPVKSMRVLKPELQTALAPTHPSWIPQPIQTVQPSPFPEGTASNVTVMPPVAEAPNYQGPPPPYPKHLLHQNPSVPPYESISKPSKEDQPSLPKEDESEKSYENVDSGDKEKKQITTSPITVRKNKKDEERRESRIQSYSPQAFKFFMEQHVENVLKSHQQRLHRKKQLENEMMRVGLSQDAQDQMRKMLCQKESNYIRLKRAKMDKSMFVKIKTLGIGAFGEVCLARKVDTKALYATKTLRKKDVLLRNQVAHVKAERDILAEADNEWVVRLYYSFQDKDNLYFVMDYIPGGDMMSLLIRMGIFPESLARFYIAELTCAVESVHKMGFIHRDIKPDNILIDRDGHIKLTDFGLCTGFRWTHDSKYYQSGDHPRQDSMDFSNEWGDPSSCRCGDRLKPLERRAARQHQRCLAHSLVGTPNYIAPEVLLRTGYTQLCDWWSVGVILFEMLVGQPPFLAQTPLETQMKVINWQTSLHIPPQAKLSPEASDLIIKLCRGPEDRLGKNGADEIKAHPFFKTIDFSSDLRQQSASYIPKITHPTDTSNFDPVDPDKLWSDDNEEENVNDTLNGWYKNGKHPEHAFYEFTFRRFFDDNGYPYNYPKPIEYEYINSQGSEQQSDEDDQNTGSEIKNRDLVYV
The experiment in a line: KiNativ, OCI cells live cell. The settings on record: 2 h. It counts as cell-based.

For another assay, the target named is MAP3K3 (Homo sapiens, UniProt Q99759). The experiment in a line: KiNativ, OCI cells live cell. It counts as cell-based. The settings on record: 2 h, labeling site Lys1, peptide […].
The next assay has as its system MARK3, MARK4. The experiment in a line: KiNativ, OCI cells live cell. It counts as cell-based, human. The settings on record: labeling site Lys1, peptide EVAIKIIDK
For another assay, the target named is MST2 (Homo sapiens, UniProt Q13188). Nature of the assay: KiNativ, OCI cells live cell. It counts as cell-based. The settings on record: 2 h, labeling site Lys1, peptide […].
The target in the next assay is NEK2 (Homo sapiens, UniProt P51955). The experiment in a line: KiNativ, OCI cells live cell. It counts as cell-based. The settings on record: 2 h, labeling site Lys2, peptide […].
For the next assay, the system named is SRPK1, SRPK2. The experiment in a line: KiNativ, OCI cells live cell. It counts as cell-based, human. The settings on record: labeling site Lys1, peptide FVAMKVVK

T6 sequence (Q9P2K8 whole entry, the tested form may be a part): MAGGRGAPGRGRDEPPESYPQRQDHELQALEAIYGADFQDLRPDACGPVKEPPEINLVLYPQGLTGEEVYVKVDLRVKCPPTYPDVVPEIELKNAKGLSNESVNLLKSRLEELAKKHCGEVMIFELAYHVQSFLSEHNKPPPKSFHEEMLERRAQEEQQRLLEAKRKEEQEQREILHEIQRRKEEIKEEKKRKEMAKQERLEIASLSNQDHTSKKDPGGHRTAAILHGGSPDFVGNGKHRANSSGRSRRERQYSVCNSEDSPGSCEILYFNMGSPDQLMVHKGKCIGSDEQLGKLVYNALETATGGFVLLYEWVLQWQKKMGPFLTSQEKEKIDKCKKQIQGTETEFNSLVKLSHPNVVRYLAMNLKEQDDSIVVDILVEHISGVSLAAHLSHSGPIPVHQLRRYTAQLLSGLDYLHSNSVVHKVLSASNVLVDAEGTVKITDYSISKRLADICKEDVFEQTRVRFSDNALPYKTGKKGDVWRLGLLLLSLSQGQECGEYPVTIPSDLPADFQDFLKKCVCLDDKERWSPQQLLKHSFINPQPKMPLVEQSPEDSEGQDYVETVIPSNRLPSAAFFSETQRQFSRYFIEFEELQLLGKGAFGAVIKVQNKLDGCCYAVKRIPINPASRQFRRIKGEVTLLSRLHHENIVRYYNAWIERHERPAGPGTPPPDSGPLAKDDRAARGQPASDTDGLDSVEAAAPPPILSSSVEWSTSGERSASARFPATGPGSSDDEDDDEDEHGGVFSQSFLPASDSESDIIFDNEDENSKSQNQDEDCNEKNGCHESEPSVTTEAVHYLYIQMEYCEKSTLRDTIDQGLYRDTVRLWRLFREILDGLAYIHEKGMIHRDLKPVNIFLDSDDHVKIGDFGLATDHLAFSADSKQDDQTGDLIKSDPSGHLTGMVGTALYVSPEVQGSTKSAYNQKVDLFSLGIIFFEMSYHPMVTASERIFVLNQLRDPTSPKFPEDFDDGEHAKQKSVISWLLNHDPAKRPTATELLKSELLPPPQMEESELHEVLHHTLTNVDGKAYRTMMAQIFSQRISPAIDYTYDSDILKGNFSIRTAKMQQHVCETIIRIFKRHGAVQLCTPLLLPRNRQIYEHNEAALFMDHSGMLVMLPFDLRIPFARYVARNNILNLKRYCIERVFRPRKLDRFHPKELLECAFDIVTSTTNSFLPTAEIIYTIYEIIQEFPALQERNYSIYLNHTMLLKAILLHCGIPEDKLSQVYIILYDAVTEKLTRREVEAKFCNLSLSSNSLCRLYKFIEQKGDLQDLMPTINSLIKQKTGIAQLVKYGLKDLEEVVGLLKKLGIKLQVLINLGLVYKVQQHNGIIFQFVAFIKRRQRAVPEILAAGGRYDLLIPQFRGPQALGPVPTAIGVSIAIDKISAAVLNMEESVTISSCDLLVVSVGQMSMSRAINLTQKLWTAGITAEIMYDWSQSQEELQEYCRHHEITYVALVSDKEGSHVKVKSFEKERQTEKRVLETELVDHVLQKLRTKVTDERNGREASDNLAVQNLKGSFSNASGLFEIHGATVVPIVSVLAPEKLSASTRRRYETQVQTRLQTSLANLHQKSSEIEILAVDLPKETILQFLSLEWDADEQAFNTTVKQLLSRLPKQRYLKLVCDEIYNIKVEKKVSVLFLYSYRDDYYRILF
T2 sequence (P36888 27-993): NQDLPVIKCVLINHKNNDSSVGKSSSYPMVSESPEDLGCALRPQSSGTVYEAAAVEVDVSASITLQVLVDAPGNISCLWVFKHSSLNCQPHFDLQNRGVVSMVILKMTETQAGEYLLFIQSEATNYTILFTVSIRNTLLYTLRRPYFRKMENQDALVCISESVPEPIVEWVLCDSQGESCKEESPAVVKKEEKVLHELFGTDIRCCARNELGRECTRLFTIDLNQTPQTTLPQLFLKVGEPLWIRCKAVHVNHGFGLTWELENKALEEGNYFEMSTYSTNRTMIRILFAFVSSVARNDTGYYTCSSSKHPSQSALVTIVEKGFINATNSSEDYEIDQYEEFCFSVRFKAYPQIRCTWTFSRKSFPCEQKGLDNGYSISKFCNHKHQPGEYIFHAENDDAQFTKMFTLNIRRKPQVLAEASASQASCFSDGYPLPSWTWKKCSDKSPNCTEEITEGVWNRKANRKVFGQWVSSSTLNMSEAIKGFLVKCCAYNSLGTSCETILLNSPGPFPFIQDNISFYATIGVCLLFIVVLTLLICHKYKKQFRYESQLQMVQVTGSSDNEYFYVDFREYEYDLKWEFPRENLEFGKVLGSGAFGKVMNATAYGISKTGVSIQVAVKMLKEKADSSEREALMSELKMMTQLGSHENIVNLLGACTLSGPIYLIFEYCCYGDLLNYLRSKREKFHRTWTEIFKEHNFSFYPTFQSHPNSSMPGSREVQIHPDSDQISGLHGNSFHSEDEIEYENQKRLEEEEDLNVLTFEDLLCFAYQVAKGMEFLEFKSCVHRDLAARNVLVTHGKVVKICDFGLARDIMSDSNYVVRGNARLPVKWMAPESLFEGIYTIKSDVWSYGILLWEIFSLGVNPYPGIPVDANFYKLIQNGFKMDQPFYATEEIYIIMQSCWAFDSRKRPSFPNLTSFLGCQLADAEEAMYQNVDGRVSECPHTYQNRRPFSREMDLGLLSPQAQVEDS
T4 sequence (Q12866 21-999): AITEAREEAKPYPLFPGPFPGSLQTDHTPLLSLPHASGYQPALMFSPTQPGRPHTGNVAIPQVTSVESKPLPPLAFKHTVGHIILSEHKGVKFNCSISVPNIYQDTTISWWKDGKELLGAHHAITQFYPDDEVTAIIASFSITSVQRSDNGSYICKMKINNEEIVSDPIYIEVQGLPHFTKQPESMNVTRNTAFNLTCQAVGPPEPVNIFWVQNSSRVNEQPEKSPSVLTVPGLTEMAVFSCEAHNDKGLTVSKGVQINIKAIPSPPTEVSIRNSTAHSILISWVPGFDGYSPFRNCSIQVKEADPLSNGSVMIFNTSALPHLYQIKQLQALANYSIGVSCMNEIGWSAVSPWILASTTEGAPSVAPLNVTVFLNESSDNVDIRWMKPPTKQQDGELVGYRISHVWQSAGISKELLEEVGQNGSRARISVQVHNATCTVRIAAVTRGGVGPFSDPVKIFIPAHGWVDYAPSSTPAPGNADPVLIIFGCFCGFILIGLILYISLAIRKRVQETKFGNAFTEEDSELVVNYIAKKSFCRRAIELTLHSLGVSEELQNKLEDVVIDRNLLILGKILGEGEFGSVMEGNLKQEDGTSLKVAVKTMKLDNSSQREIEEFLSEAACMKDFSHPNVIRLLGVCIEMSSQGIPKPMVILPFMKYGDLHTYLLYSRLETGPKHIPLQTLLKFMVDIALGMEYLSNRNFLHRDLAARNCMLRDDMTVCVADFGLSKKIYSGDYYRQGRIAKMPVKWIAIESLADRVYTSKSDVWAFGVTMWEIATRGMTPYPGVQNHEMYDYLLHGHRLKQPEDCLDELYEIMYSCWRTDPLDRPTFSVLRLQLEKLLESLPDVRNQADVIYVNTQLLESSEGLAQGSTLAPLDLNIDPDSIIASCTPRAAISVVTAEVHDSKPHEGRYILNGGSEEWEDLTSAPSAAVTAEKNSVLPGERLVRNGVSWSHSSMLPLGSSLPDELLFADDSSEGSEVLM
MST2, sequence (Q13188 whole entry): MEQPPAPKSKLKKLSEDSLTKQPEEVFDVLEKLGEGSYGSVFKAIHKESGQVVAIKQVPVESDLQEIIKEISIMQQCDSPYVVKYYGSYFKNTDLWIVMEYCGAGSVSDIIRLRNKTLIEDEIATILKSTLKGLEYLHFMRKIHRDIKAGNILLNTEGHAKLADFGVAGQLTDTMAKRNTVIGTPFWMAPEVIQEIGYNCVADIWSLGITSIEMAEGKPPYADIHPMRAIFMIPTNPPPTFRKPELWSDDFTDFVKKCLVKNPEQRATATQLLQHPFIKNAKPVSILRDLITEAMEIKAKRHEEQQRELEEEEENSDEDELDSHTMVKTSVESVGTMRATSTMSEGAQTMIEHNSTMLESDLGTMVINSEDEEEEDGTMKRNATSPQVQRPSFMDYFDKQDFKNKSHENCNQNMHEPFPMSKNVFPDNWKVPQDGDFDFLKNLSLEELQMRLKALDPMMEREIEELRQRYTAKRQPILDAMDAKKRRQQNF
NEK2, sequence (P51955 whole entry): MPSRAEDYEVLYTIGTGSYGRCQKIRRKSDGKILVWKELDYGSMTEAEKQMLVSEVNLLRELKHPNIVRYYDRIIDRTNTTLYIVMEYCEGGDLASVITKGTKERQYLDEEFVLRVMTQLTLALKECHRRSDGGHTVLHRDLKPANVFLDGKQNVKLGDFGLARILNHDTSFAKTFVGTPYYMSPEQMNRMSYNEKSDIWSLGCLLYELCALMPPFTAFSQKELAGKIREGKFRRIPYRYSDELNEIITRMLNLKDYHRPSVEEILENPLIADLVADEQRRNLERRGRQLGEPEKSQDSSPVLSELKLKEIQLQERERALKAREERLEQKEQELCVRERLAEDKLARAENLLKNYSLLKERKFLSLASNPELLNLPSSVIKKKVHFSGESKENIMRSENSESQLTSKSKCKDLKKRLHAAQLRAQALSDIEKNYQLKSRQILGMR
CCRK, sequence (Q8IZL9 whole entry, the tested form may be a part): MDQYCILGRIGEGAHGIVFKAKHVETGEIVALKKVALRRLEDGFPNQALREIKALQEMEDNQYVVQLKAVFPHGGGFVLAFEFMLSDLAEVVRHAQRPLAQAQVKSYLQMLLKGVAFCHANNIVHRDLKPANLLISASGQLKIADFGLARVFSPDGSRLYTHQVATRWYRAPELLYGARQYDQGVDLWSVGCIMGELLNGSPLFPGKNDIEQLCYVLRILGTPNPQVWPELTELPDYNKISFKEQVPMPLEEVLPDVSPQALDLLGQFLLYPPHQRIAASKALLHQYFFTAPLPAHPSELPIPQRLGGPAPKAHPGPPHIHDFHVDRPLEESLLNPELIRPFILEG

For orientation: Kd means the constant that tells how readily two partners part at equilibrium. Lower therefore signals tighter binding. Usually Inhibition stands for the relative decrease from the control value, in per cent. As usually defined, the inhibition is the change of the read-out against control, counted positive when it falls. `CN1CCN(Cc2ccc(Nc3ncc(Cl)c(Nc4ccccc4S(=O)(=O)N(C)C)n3)cc2)CC1` [TP-0903]: the Kd at ABL1 was < 5 nM; on FLT3, 0.93 nM and < 5 nM; at JAK3, < 5 nM; at MERTK, < 5 nM; at FGFR1, 21 nM. For the same compound, in [1], the “phospho-FLT3 and phospho-STAT5 by immunoblot” value is “inhibition”. The Inhibition in the assay with AMPKa1, AMPKa2 (labeling site Lys1, peptide VAVKILNR) is given as 71.8%; in the assay with AMPKa1, AMPKa2 (labeling site Lys2, peptide DLKPENVLLDAHMNAK), 75.1%; at IRAK4 (labeling site Lys1, peptide GYVNNTTVAVKK), -0.0707%; at IRAK4 (labeling site Lys2, peptide DIKSANILLDEAFTAK), 8.2%; in the assay with MARK3, MARK4, 43.9%; with SRPK1, SRPK2, -36.9%. In addition, the inhibition at 0.1 µM was 58.1% against CCRK; -6.9% on GCN2 domain2 (labeling site Lys1, peptide LDGCCYAVKR); -2.8% on GCN2 domain2 (labeling site Lys2, peptide DLKPVNIFLDSDDHVK); 11.6% at LATS1 (labeling site Lys1, peptide ALYATKTLR); 7.9% at LATS1 (labeling site Lys2, peptide DIKPDNILIDR); 20% at MAP3K3. The inhibition at 0.1 µM against MST2 is 7.3%; against NEK2 it was 23.6%.
